Source: patent US20070003531A1, “Methods for improving immunotherapy by enhancing survival of antigen-specific cytotoxic T lymphocytes” (University of Connecticut, priority 2005, published 2007)
Entries after “also recorded” stand apart in the source; their conditions may differ.

Experiments:
[1] = system: MART-127-35 epitope specific human primary CTL; experiment: AICD induction and quantitation in epitope specific primary CTL (tetramer/annexin V FACS); assay type: cell-based; settings: pre-incubation about 45 min; restimulation with MART-127-35 peptide pulsed T2 cells; kinase inhibitors 25 μM, z-VAD-fmk 100 μM, Fc chimeras 10 μg/ml
Experimental: FIG. 10. Effect of external death receptor blockade and MAP kinase inhibitors on AICD in the epitope specific CTLs upon secondary encounter of the cognate epitope. The CTLs were pre-incubated at optimal concentration for about 45 min. at about 37° C. with pan caspase inhibitor z-VAD-fmk (100 μM); human Fas/Fc chimera, human TNF-RI/Fc chimera, human TRAIL-RI/Fc chimera, human TRAIL-RII/Fc chimera and human IFN-γ RI/Fc chimeric proteins (10 μg/ml); p38 kinase inhibitor SB203580, JNK inhibitor anthra[1,9-cd]pyrazol-6(2H)-one (SP600125), […] inhibitor PD98059 (25 μM). Then the pretreated as well as untreated CTLs were incubated with T2 cells either alone or loaded with peptide. About 4 hours after secondary exposure cells were stained for determining: (A) Number of tetramer^+ cells out of the CD8^+ T cells [Top panel]; number of tetramer^+/Annexin V^+ and tetramer^+/Annexin^− populations [Bottom panel]. […] (B) Effect of the MAP kinase inhibitors on IFN-γ response by the effector cells.
AICD induction and quantitation. AICD in the human primary CTL primed and expanded specifically for melanoma epitope MART-127-35 was induced by re-exposure of the CTLs to MART-127-35 peptide (1 μg/ml) as reported previously. Staurosporine mediated death was induced by exposure of CTL to 1 μM staurosporine for 4 hr. Quantitation of AICD and the effects of various inhibitors on AICD of CTLs, were carried out by annexin-V staining followed by FACS analyses as reported previously.
In test whether or not the epitope specific primary CTLs undergo AICD, the activated CTLs were exposed to peptide [1 μg/ml] loaded T2 cells (Effector: Target=100) at different time points of the cultures. Thereafter, the evidence of apoptosis was determined by flow cytometry with triple color staining (CD8, MART-127-35/HLA-A2 tetramer and annexin V) at different time points (4-18 h). Experiments were carried out in triplicate wells and significance was calculated by One-way analysis of variance (ANOVA) using Sigma Stat statistical software, Chicago, Ill.
To evaluate the effect of various agents in modulating AICD, the CTLs were pre-incubated with various compounds at optimal concentration for 45 min. at 37° C. and then exposed to T2 cells alone or loaded with peptide.

[2] = system: MART-127-35 tetramer+/CD8+ CTLs; experiment: Survival of antigen specific CTLs five days after secondary encounter of the epitope; assay type: cell-based, human; settings: day five in IL-15 after overnight co-culture with cognate epitope; inhibitor 25 μM then washed off
Experimental: FIG. 13. Survival of the antigen specific CTLs following secondary encounter of the epitope in the presence of anthra[1,9-cd]pyrazol-6(2H)-one (SP600125) and recovery of function in the pyrazoloanthrone rescued CTLs. Effector cells were co-cultured with peptide pulsed T2 cells in the presence or absence of the kinase inhibitors (25 μM). The cultures were washed about 18 h later and then recultured in IL-15 containing medium. On day five, the numbers of the viable antigen specific CTLs were determined. […] The number (11%) of MART-127-35 tetramer^+/CD8^+ population exposed to MART-127-35 peptide pulsed T2 cells (T2/M1) is a reflection of loss of epitope specific CTLs from AICD. […] (B) IFN-γ response by the recovered populations (M3=MAGE-3271-279, M1=MART-127-35).
Finally, the functional status of SP600125 rescued CTLs upon continuous culture was examined. After overnight exposure of the CTLs to the cognate epitope in the presence or absence of SP600125, the CTLs were washed and then maintained in continuous culture in IL-15 containing CM without the inhibitor. Five days after, the number of viable MART-127-35 tetramer positive cells were determined and their function was tested in the IFN-γ response assay. […] Remarkably, the rescued CTLs regained their capacity to synthesize IFN-γ (FIG. 13B).

O=C1c2ccccc2-c2n[nH]c3cccc1c23 [SP600125, anthra[1,9-cd]pyrazol-6(2H)-one]
protection/rescue of CTL from AICD [1]: protected; also recorded: rescued a significant fraction; also recorded: capable of protecting; also recorded: blocked | fraction of starting epitope specific population recovered [2]: larger fraction
